{"source": "patent US20070161542A1", "about": "“Ptb1b photoprobes” (priority 2003, published 2007)", "origin": "cited, not measured here", "test_system": "PTP1B and TCPTP1B", "details": "reference (23); cited from earlier work", "note": "Non-standard residues stand in square brackets, D forms with d. Residues, ends and D or L forms follow the SMILES beside them. *: point of attachment. F2Pmp = N[C@@H](Cc1ccc(C(F)(F)P(=O)(O)O)cc1)C(=O)O; Bz = O=C(c1ccccc1)*"}
{"compound": "NC(=O)[C@H](Cc1ccc(C(F)(F)P(=O)(O)O)cc1)NC(=O)[C@H](Cc1ccc(C(F)(F)P(=O)(O)O)cc1)NC(=O)[C@H](CCC(=O)O)NC(=O)c1ccccc1", "note": "[BzN-EJJ-AMIDE, N-benzoyl-L-glutamyl-[4-phosphono(difluoromethyl)]-L-phenylalanyl-[4-phosphono(difluoromethyl)]-L-phenylanalininamide] (Bz-Glu-[F2Pmp]-[F2Pmp]-NH2)", "values": [{"measurement": "inhibitor character", "result": "selective, potent inhibitor"}]}
